Each block holds one molecule with its values, some of them ahead of it.
What was measured:
[1] = logP determination by HPLC on reversed-phase column (EEC Directive 79/831); assay type: physicochemical; conditions: 0.1% aqueous phosphoric acid/acetonitrile gradient; for logP (pH 2.3): reversed-phase C18, 43° C.; for chromatographic logP: reversed-phase HPLC column (C18), pH 2.3, reversed-phase C18, 43° C.
Experimental: The logP values given in the tables and preparation examples above are determined in accordance with EEC Directive 79/831 Annex V.48 by HPLC (High Performance Liquid Chromatography) on a reversed-phase column (C18). Temperature: 43° C. The determination is carried out in the acidic range at pH 2.3 using the mobile phases 0.1% aqueous phosphoric acid and acetonitrile; linear gradient from 10% acetonitrile to 90% acetonitrile. Calibration is carried out using unbranched […] (of 3 to 16 carbon atoms) with known logP values (determination of the logP values by the retention time using linear interpolation between two successive alkanones).

Alternaria solani = assay: Alternaria test (tomato)/protective; assay type: in vivo; conditions: application rate 750 g/ha; tomato plants, protective spray, inoculation 1 day after treatment; evaluation 7 days after inoculation; 100% = no infection
Experimental: [table] To produce a suitable p reparation of active compound, 1 part by weight of active compound is mixed with the stated amounts of solvent and emulsifier, and the concentrate is diluted with water to the desired concentration. To test for protective activity, young tomato plants are sprayed with the preparation of active compound at the stated application rate. 1 day after the treatment, the plants are inoculated with a spore suspension of Alternaria solani and are then kept at 100% relative atmospheric humidity and 20° C. for 24 h. The plants are then kept at 96% relative atmospheric humidity and a temperature of 20° C. Evaluation is carried out 7 days after the inoculation. 0% means an efficacy which corresponds to that of the control, whereas an efficacy of 100% means that no infection is observed.

Podosphaera leucotricha = assay: Podosphaera test (apple)/protective; assay type: in vivo; conditions: 240 h, application rate 100 g/ha, apple plants, protective spray, evaluation 10 days after inoculation, 100% = no infection, read-out: Efficacy in %
Experimental: (§1) [table] To produce a suitable preparation of active compound, 1 part by weight of active compound is mixed with the stated amounts of solvent and emulsifier, and the concentrate is diluted with water to the desired concentration. To test for protective activity, young plants are sprayed with the preparation of active compound at the stated application rate. After the spray coating has dried on, the plants are inoculated with an aqueous spore suspension of the apple mildew pathogen Podosphaera leucotricha. The plants are then placed in a greenhouse at about 23° C. and a relative atmospheric humidity of about 70%. Evaluation is carried out 10 days after the inoculation. 0% means an efficacy which corresponds to that of the control, whereas an efficacy of 100% means that no infection is observed.

Sphaerotheca fuliginea = assay: Sphaerotheca test (cucumber)/protective; assay type: in vivo; conditions: Podosphaera fuliginea, 168 h; application rate 100 g/ha; cucumber plants, protective spray; evaluation 7 days after inoculation; 100% = no infection; read-out: Efficacy in %
Experimental: as §1, with “of Sphaerotheca fuliginea.” for “of the apple mildew pathogen Podosphaera leucotricha.”, “out 7” for “out 10”

Venturia inaequalis = assay: Venturia test (apple)/protective; assay type: in vivo; conditions: 240 h, application rate 100 g/ha, apple plants, protective spray, evaluation 10 days after inoculation, 100% = no infection, read-out: Efficacy in %
Experimental: as §1, with “conidia” for “spore”, “scab” for “mildew”, “Venturia inaequalis and then remain in an incubation cabin at about 20° C. and 100% relative atmospheric humidity for 1 day.” for “Podosphaera leucotricha.”, “21°” for “23°”, “90%.” for “70%.”

Compound: O=C(Nc1ccccc1-c1ccc(C(F)(F)F)cc1)c1ccccc1Cl [Compound 11]
logP (pH 2.3) [1]: 3.89

Compound: Cc1ccccc1C(=O)Nc1ccccc1-c1ccc(OC(F)(F)F)cc1 [Compound 25]
logP (pH 2.3) [1]: 4.03

Compound: O=C(Nc1ccccc1-c1cccc(Cl)c1)c1ccccc1Br [Compound 18]
chromatographic logP [1]: 3.78
Efficacy in % (Alternaria solani): 100%

Compound: CSc1ccc(-c2ccccc2NC(=O)c2ccccc2I)cc1 [Compound 31]
logP (pH 2.3) [1]: 3.86

Compound: O=C(Nc1ccccc1-c1ccc(OC(F)(F)F)cc1)c1ccccc1I [Compound 30]
logP (pH 2.3) [1]: 4.21

Compound: O=C(Nc1ccccc1-c1ccc(Cl)cc1)c1ccccc1C(F)(F)F [Compound 1]
chromatographic logP [1]: 3.73
pest or weed control at 100 g/ha (Podosphaera leucotricha): 100%
pest or weed control at 100 g/ha (Sphaerotheca fuliginea): 94%
pest or weed control at 100 g/ha (Venturia inaequalis): 97%

Compound: O=C(Nc1ccccc1-c1ccc(C(F)(F)F)cc1)c1ccccc1I [Compound 28]
logP (pH 2.3) [1]: 4.03

Compound: O=C(Nc1ccccc1-c1ccc(OC(F)(F)F)cc1)c1ccccc1Br [Compound 19]
logP (pH 2.3) [1]: 4.08

Compound: O=C(Nc1ccccc1-c1ccc(Br)cc1)c1ccccc1Cl [Compound 10]
chromatographic logP [1]: 3.89
Efficacy in % (Alternaria solani): 92%

Compound: O=C(Nc1ccccc1-c1ccc(F)cc1)c1ccccc1Cl [Compound 15]
logP (pH 2.3) [1]: 3.40

Compound: O=C(Nc1ccccc1-c1ccc(Cl)cc1Cl)c1ccccc1C(F)(F)F [Compound 2]
chromatographic logP [1]: 4
pest or weed control at 100 g/ha (Podosphaera leucotricha): 100%
pest or weed control at 100 g/ha (Sphaerotheca fuliginea): 94%

Compound: O=C(Nc1ccccc1-c1ccc(C(F)(F)F)cc1)c1ccccc1Br [Compound 17]
logP (pH 2.3) [1]: 3.94

Compound: O=C(Nc1ccccc1-c1ccc(C(F)(F)F)cc1)c1ccccc1C(F)(F)F [Compound 6]
logP (pH 2.3) [1]: 4.05

Compound: O=C(Nc1ccccc1-c1ccc(Br)cc1)c1ccccc1I [Compound 27]
logP (pH 2.3) [1]: 4.00

Compound: O=C(Nc1ccccc1-c1cccc(Cl)c1)c1ccccc1I [Compound 29]
logP (pH 2.3) [1]: 3.86

Compound: CSc1ccc(-c2ccccc2NC(=O)c2ccccc2Br)cc1 [Compound 20]
logP (pH 2.3) [1]: 3.78

Compound: O=C(Nc1ccccc1-c1ccc(F)c(Cl)c1)c1ccccc1C(F)(F)F [Compound 35, N-(3′-chloro-4′-fluoro-1,1′-biphenyl-2-yl)-2-(trifluoromethyl)benzamide]
chromatographic logP [1]: 3.81
pest or weed control at 100 g/ha (Podosphaera leucotricha): 100%
pest or weed control at 100 g/ha (Sphaerotheca fuliginea): 93%
pest or weed control at 100 g/ha (Venturia inaequalis): 100%

Compound: Cc1ccccc1C(=O)Nc1ccccc1-c1ccc(C(F)(F)F)cc1 [Compound 23]
logP (pH 2.3) [1]: 3.86

Compound: O=C(Nc1ccccc1-c1ccc(F)cc1)c1ccccc1I [Compound 32]
logP (pH 2.3) [1]: 3.55

Compound: O=C(Nc1ccccc1-c1ccc(OC(F)(F)F)cc1)c1ccccc1C(F)(F)F [Compound 8]
logP (pH 2.3) [1]: 4.20

Compound: O=C(Nc1ccccc1-c1ccc(OC(F)(F)F)cc1)c1ccccc1Cl [Compound 13]
logP (pH 2.3) [1]: 4.08

Compound: CSc1ccc(-c2ccccc2NC(=O)c2ccccc2C)cc1 [Compound 26]
logP (pH 2.3) [1]: 3.72

Compound: Cc1ccccc1C(=O)Nc1ccccc1-c1ccc(Br)cc1 [Compound 22]
logP (pH 2.3) [1]: 3.86

Compound: O=C(Nc1ccccc1-c1ccc(Br)cc1)c1ccccc1Br [Compound 16]
logP (pH 2.3) [1]: 3.91

Compound: CSc1ccc(-c2ccccc2NC(=O)c2ccccc2C(F)(F)F)cc1 [Compound 9]
logP (pH 2.3) [1]: 3.89

Compound: CSc1ccc(-c2ccccc2NC(=O)c2ccccc2Cl)cc1 [Compound 14]
logP (pH 2.3) [1]: 3.75

Compound: O=C(Nc1ccccc1-c1ccc(Br)cc1)c1ccccc1C(F)(F)F [Compound 5]
chromatographic logP [1]: 4.03
Efficacy in % (Alternaria solani): 94%

Compound: O=C(Nc1ccccc1-c1ccc(F)cc1)c1ccccc1Br [Compound 21]
logP (pH 2.3) [1]: 3.42

Compound: O=C(Nc1ccccc1-c1cccc(Cl)c1)c1ccccc1Cl [Compound 12]
chromatographic logP [1]: 3.75
pest or weed control at 100 g/ha (Podosphaera leucotricha): 100%
pest or weed control at 100 g/ha (Venturia inaequalis): 100%

Compound: O=C(Nc1ccccc1-c1ccc(F)c(F)c1)c1ccccc1C(F)(F)F [Compound 33]
chromatographic logP [1]: 3.55
pest or weed control at 100 g/ha (Podosphaera leucotricha): 100%
pest or weed control at 100 g/ha (Sphaerotheca fuliginea): 82%
pest or weed control at 100 g/ha (Venturia inaequalis): 100%
Efficacy in % (Alternaria solani): 94%

Compound: Cc1cc(Cl)ccc1-c1ccccc1NC(=O)c1ccccc1C(F)(F)F [Compound 3]
chromatographic logP [1]: 4.14
pest or weed control at 100 g/ha (Podosphaera leucotricha): 99%
pest or weed control at 100 g/ha (Sphaerotheca fuliginea): 100%
pest or weed control at 100 g/ha (Venturia inaequalis): 100%

Compound: Cc1ccccc1C(=O)Nc1ccccc1-c1cccc(Cl)c1 [Compound 24]
logP (pH 2.3) [1]: 3.72

Compound: O=C(Nc1ccccc1-c1ccc(Cl)c(F)c1)c1ccccc1C(F)(F)F [Compound 34]
chromatographic logP [1]: 3.76
pest or weed control at 100 g/ha (Podosphaera leucotricha): 100%
pest or weed control at 100 g/ha (Sphaerotheca fuliginea): 95%
pest or weed control at 100 g/ha (Venturia inaequalis): 100%

More lines, main results first:

chromatographic logP [1]: 4.18
Compound: Cc1cc(-c2ccccc2NC(=O)c2ccccc2C(F)(F)F)ccc1Cl [Compound 42, N-(4′-chloro-3′-methyl-1,1′-biphenyl-2-yl)-2-(trifluoromethyl)benzamide]
pest or weed control at 100 g/ha (Podosphaera leucotricha): 100%
pest or weed control at 100 g/ha (Sphaerotheca fuliginea): 100%
pest or weed control at 100 g/ha (Venturia inaequalis): 100%

logP (pH 2.3) [1]: 4.41
Compound: O=C(Nc1ccccc1-c1ccc(OC(F)(F)F)c(C(F)(F)F)c1)c1ccccc1C(F)(F)F [Compound 40]

logP (pH 2.3) [1]: 3.66
Compound: O=C(Nc1ccccc1-c1ccc(Cl)cc1)c1ccccc1Br [Compound 50]

logP (pH 2.3) [1]: 4.18
Compound: Cc1ccc(-c2ccccc2NC(=O)c2ccccc2C(F)(F)F)cc1C(F)(F)F [Compound 39]

chromatographic logP [1]: 2.99
Compound: O=C(Nc1ccccc1Br)c1ccccc1C(F)(F)F [IV-1, N-(2-bromophenyl)-2-(trifluoro-methyl)benzamide]

chromatographic logP [1]: 3.9
Compound: O=C(Nc1ccccc1-c1ccc(F)c(C(F)(F)F)c1)c1ccccc1C(F)(F)F [Compound 41]
pest or weed control at 100 g/ha (Podosphaera leucotricha): 94%
pest or weed control at 100 g/ha (Sphaerotheca fuliginea): 100%

logP (pH 2.3) [1]: 4.16
Compound: O=C(Nc1ccccc1-c1cc(Cl)cc(Cl)c1)c1ccccc1C(F)(F)F [Compound 43]

logP (pH 2.3) [1]: 3.64
Compound: O=C(Nc1ccccc1-c1ccc(Cl)cc1)c1ccccc1Cl [Compound 49]

logP (pH 2.3) [1]: 3.74
Compound: O=C(Nc1ccccc1-c1ccc(Cl)cc1)c1ccccc1I [Compound 46]

logP (pH 2.3) [1]: 4.08
Compound: O=C(Nc1ccccc1-c1ccc(OC(F)(F)F)c(F)c1)c1ccccc1C(F)(F)F [Compound 37]

logP (pH 2.3) [1]: 3.81
Compound: O=C(Nc1c(F)cccc1-c1ccc(Cl)c(Cl)c1)c1ccccc1C(F)(F)F [Compound 48]

logP (pH 2.3) [1]: 4.11
Compound: O=C(Nc1ccc(F)cc1-c1ccc(Cl)c(Cl)c1)c1ccccc1C(F)(F)F [Compound 47]

logP (pH 2.3) [1]: 4.06
Compound: O=C(Nc1ccccc1-c1ccc(Cl)c(Cl)c1)c1ccccc1I [Compound 44]

logP (pH 2.3) [1]: 3.68
Compound: O=C(Nc1ccccc1-c1ccc(Cl)cc1F)c1ccccc1C(F)(F)F [Compound 45]

logP (pH 2.3) [1]: 3.41
Compound: O=C(Nc1ccccc1-c1ccc(F)cc1F)c1ccccc1C(F)(F)F [Compound 36]

logP (pH 2.3) [1]: 4.18
Compound: O=C(Nc1ccccc1-c1ccc(Cl)c(C(F)(F)F)c1)c1ccccc1C(F)(F)F [Compound 38]
